{"source": "BindingDB's records for doi:10.1074/jbc.M402433200", "about": "(University of Bristol, 2004)", "key": {"[1]": {"target": "L-lactate dehydrogenase B chain (Homo sapiens, UniProt P07195)", "sequence (P07195 whole entry)": "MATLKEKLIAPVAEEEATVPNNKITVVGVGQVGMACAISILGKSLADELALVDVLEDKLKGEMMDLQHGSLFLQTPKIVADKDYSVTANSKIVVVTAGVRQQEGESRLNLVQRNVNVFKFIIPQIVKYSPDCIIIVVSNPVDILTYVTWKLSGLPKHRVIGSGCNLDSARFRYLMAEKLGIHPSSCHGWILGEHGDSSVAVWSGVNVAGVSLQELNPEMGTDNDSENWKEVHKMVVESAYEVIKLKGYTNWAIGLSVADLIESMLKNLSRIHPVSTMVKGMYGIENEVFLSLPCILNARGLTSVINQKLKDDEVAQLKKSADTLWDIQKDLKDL", "assay": "Lactate Dehydrogenase Inhibition Assay", "text": "(§1) An LDH enzymatic assay developed for high throughput format was used. The dehydrogenase reaction was run in the lactate to pyruvate direction and coupled with the ability of diaphorase to reduce p-iodonitrotetrazolium violet using the NADH generated in the conversion of lactate to pyruvate. The progression of the coupling reaction was monitored as the increase of absorbance at 492 nm. Positive hits were subjected to additional analysis to determine IC50 values."}, "L-lactate dehydrogenase": {"target": "L-lactate dehydrogenase (Plasmodium falciparum (isolate CDC / Honduras), UniProt Q27743)", "sequence (Q27743 whole entry)": "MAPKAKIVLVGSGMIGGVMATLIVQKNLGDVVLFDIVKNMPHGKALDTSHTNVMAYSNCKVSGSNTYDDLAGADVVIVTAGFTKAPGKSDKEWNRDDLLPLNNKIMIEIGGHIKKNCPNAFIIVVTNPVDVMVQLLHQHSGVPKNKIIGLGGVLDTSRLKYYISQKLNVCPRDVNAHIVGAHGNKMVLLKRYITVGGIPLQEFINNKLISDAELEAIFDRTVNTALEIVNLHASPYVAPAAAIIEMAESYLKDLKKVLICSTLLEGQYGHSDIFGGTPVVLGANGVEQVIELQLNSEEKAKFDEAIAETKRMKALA", "assay": "Lactate Dehydrogenase Inhibition Assay", "conditions": "pH 7.5; 25 °C", "text": "as §1"}}}
{"smiles": "Cn1nnc(O)c1C(=O)O", "note": "[4-hydroxy-1-methyl-1H-1,2,3-triazole-5-carboxylic acid]", "values": [{"measurement": "IC50", "setting": "[1]", "value": "> 100", "unit": "µM"}, {"measurement": "IC50", "setting": "L-lactate dehydrogenase", "value": "> 100", "unit": "µM"}]}
{"smiles": "COC(=O)c1c(C)[nH]oc1=O", "note": "[methyl 5-hydroxy-3-methyl-1,2-oxazole-4-carboxylate]", "values": [{"measurement": "IC50", "setting": "[1]", "value": "> 100", "unit": "µM"}, {"measurement": "IC50", "setting": "L-lactate dehydrogenase", "value": "> 100", "unit": "µM"}]}
{"smiles": "O=C(O)c1nonc1NCCO", "note": "[4-[(2-hydroxyethyl)amino]-1,2,5-oxadiazole-3-carboxylic acid]", "values": [{"measurement": "IC50", "setting": "[1]", "value": "> 200", "unit": "µM"}, {"measurement": "IC50", "setting": "L-lactate dehydrogenase", "value": "> 200", "unit": "µM"}]}
{"smiles": "Cc1o[nH]c(=O)c1C(=O)O", "note": "[3-hydroxy-5-methyl-1,2-oxazole-4-carboxylic acid]", "values": [{"measurement": "IC50", "setting": "[1]", "value": "> 100", "unit": "µM"}, {"measurement": "IC50", "setting": "L-lactate dehydrogenase", "value": "> 100", "unit": "µM"}]}
{"smiles": "Cn1nc(O)c(C(=O)O)n1", "note": "[5-hydroxy-2-methyl-2H-1,2,3-triazole-4-carboxylic acid]", "values": [{"measurement": "IC50", "setting": "[1]", "value": "> 100", "unit": "µM"}, {"measurement": "IC50", "setting": "L-lactate dehydrogenase", "value": "> 100", "unit": "µM"}]}
{"smiles": "COc1nocc1C(=O)O", "note": "[3-methoxy-1,2-oxazole-4-carboxylic acid]", "values": [{"measurement": "IC50", "setting": "[1]", "value": "> 100", "unit": "µM"}, {"measurement": "IC50", "setting": "L-lactate dehydrogenase", "value": "> 100", "unit": "µM"}]}
{"smiles": "CCOC(=O)c1co[nH]c1=O", "note": "[ethyl 3-hydroxy-1,2-oxazole-4-carboxylate]", "values": [{"measurement": "IC50", "setting": "[1]", "value": "> 100", "unit": "µM"}, {"measurement": "IC50", "setting": "L-lactate dehydrogenase", "value": "> 100", "unit": "µM"}]}
{"smiles": "O=C(O)c1c(O)nnn1Cc1ccccc1", "note": "[1-benzyl-4-hydroxy-1H-1,2,3-triazole-5-carboxylic acid]", "values": [{"measurement": "IC50", "setting": "[1]", "value": "> 100", "unit": "µM"}, {"measurement": "IC50", "setting": "L-lactate dehydrogenase", "value": "> 100", "unit": "µM"}]}
{"smiles": "CCOC(=O)c1nonc1OCc1ccc(OC)cc1", "note": "[ethyl 4-[(4-methoxyphenyl)methoxy]-1,2,5-oxadiazole-3-carboxylate]", "values": [{"measurement": "IC50", "setting": "[1]", "value": "> 200", "unit": "µM"}, {"measurement": "IC50", "setting": "L-lactate dehydrogenase", "value": "> 200", "unit": "µM"}]}
{"smiles": "O=C(O)c1noc(C(=O)O)c1O", "note": "[4-hydroxy-1,2-oxazole-3,5-dicarboxylic acid]", "values": [{"measurement": "IC50", "setting": "[1]", "value": "> 100", "unit": "µM"}, {"measurement": "IC50", "setting": "L-lactate dehydrogenase", "value": 81, "unit": "µM"}]}
{"smiles": "COc1nsnc1C(=O)O", "note": "[4-methoxy-1,2,5-thiadiazole-3-carboxylic acid]", "values": [{"measurement": "IC50", "setting": "[1]", "value": "> 100", "unit": "µM"}, {"measurement": "IC50", "setting": "L-lactate dehydrogenase", "value": "> 100", "unit": "µM"}]}
{"smiles": "O=C(O)c1nonc1O", "note": "[4-hydroxy-1,2,5-oxadiazole-3-carboxylic acid]", "values": [{"measurement": "IC50", "setting": "[1]", "value": 72.1, "unit": "µM"}, {"measurement": "IC50", "setting": "L-lactate dehydrogenase", "value": 0.65, "unit": "µM"}, {"measurement": "Ki", "setting": "L-lactate dehydrogenase", "value": 0.21, "unit": "µM"}]}
{"smiles": "O=C(O)Cc1no[nH]c1=O", "note": "[2-(4-hydroxy-1,2,5-oxadiazol-3-yl)acetic acid]", "values": [{"measurement": "IC50", "setting": "[1]", "value": "> 200", "unit": "µM"}, {"measurement": "IC50", "setting": "L-lactate dehydrogenase", "value": "> 200", "unit": "µM"}]}
{"smiles": "Nc1nsnc1C(=O)O", "note": "[4-amino-1,2,5-thiadiazole-3-carboxylic acid]", "values": [{"measurement": "IC50", "setting": "[1]", "value": "> 100", "unit": "µM"}, {"measurement": "IC50", "setting": "L-lactate dehydrogenase", "value": "> 100", "unit": "µM"}]}
{"smiles": "O=C(O)c1cnn[nH]1", "note": "[1H-1,2,3-triazole-5-carboxylic acid]", "values": [{"measurement": "IC50", "setting": "[1]", "value": "> 200", "unit": "µM"}, {"measurement": "IC50", "setting": "L-lactate dehydrogenase", "value": 98, "unit": "µM"}]}
{"smiles": "O=C(O)c1conc1O", "note": "[3-hydroxy-1,2-oxazole-4-carboxylic acid]", "values": [{"measurement": "IC50", "setting": "[1]", "value": 54, "unit": "µM"}, {"measurement": "IC50", "setting": "L-lactate dehydrogenase", "value": 1.1, "unit": "µM"}, {"measurement": "Ki", "setting": "L-lactate dehydrogenase", "value": 0.47, "unit": "µM"}]}
{"smiles": "CCOC(=O)c1nonc1O", "note": "[ethyl 4-hydroxy-1,2,5-oxadiazole-3-carboxylate]", "values": [{"measurement": "IC50", "setting": "[1]", "value": "> 100", "unit": "µM"}, {"measurement": "IC50", "setting": "L-lactate dehydrogenase", "value": "> 100", "unit": "µM"}]}
{"smiles": "O=C(O)c1nonc1OC/C=C/c1ccccc1", "note": "[4-{[(2E)-3-phenylprop-2-en-1-yl]oxy}-1,2,5-oxadiazole-3-carboxylic acid]", "values": [{"measurement": "IC50", "setting": "[1]", "value": "> 200", "unit": "µM"}, {"measurement": "IC50", "setting": "L-lactate dehydrogenase", "value": "> 200", "unit": "µM"}]}
{"smiles": "Cn1occ(C(=O)O)c1=O", "note": "[2-methyl-3-oxo-2,3-dihydro-1,2-oxazole-4-carboxylic acid]", "values": [{"measurement": "IC50", "setting": "[1]", "value": "> 100", "unit": "µM"}, {"measurement": "IC50", "setting": "L-lactate dehydrogenase", "value": "> 100", "unit": "µM"}]}
{"smiles": "O=C(O)c1nocc1O", "note": "[4-hydroxy-1,2-oxazole-3-carboxylic acid]", "values": [{"measurement": "IC50", "setting": "[1]", "value": "> 100", "unit": "µM"}, {"measurement": "IC50", "setting": "L-lactate dehydrogenase", "value": 16, "unit": "µM"}]}
{"smiles": "Nc1nonc1C(=O)O", "note": "[4-amino-1,2,5-oxadiazole-3-carboxylic acid]", "values": [{"measurement": "IC50", "setting": "[1]", "value": "> 200", "unit": "µM"}, {"measurement": "IC50", "setting": "L-lactate dehydrogenase", "value": "> 200", "unit": "µM"}]}
{"smiles": "CCOC(=O)c1c[nH]oc1=O", "note": "[ethyl 5-hydroxy-1,2-oxazole-4-carboxylate]", "values": [{"measurement": "IC50", "setting": "[1]", "value": "> 100", "unit": "µM"}, {"measurement": "IC50", "setting": "L-lactate dehydrogenase", "value": "> 100", "unit": "µM"}]}
{"smiles": "O=C(O)c1nn(Cc2ccccc2)[nH]c1=O", "note": "[2-benzyl-5-hydroxy-2H-1,2,3-triazole-4-carboxylic acid]", "values": [{"measurement": "IC50", "setting": "[1]", "value": "> 100", "unit": "µM"}, {"measurement": "IC50", "setting": "L-lactate dehydrogenase", "value": "> 100", "unit": "µM"}]}
{"smiles": "O=C(O)c1nsnc1O", "note": "[4-hydroxy-1,2,5-thiadiazole-3-carboxylic acid]", "values": [{"measurement": "IC50", "setting": "[1]", "value": 10.3, "unit": "µM"}, {"measurement": "IC50", "setting": "L-lactate dehydrogenase", "value": 0.14, "unit": "µM"}, {"measurement": "Ki", "setting": "L-lactate dehydrogenase", "value": 0.29, "unit": "µM"}]}
{"smiles": "O=C(OCc1ccc(Cl)c(Cl)c1)c1no[nH]c1=O", "note": "[(3,4-dichlorophenyl)methyl 4-hydroxy-1,2,5-oxadiazole-3-carboxylate]", "values": [{"measurement": "IC50", "setting": "[1]", "value": "> 200", "unit": "µM"}, {"measurement": "IC50", "setting": "L-lactate dehydrogenase", "value": "> 200", "unit": "µM"}]}
{"smiles": "O=C(O)c1cnon1", "note": "[1,2,5-oxadiazole-3-carboxylic acid]", "values": [{"measurement": "IC50", "setting": "[1]", "value": "> 200", "unit": "µM"}, {"measurement": "IC50", "setting": "L-lactate dehydrogenase", "value": "> 200", "unit": "µM"}]}
